# Measurements published in patent US5162336A, “Tetrahydro-pyrido-indoles as cholecystokinin and gastrin antagonists” (Rhone-Poulenc Rorer Pharmaceuticals Inc., priority 1990, dated 1992).
# What was measured:
# CCK-A receptor = molecular target: T1, CCK-A receptor (Rattus norvegicus, UniProt P30551); experiment: CCK-A receptor binding assay (displacement of 3H-L-364,718 from rat pancreas membranes); design: species or system Sprague-Dawley rat; conditions: 3H-L-364,718 0.2 nM, 37° C., 30 min, read-out: In vitro Binding Data IC50 CCK
# T1 construct: from tissue; host or cells: pancreas membranes of Sprague-Dawley rat
# T1 sequence (P30551 1-444): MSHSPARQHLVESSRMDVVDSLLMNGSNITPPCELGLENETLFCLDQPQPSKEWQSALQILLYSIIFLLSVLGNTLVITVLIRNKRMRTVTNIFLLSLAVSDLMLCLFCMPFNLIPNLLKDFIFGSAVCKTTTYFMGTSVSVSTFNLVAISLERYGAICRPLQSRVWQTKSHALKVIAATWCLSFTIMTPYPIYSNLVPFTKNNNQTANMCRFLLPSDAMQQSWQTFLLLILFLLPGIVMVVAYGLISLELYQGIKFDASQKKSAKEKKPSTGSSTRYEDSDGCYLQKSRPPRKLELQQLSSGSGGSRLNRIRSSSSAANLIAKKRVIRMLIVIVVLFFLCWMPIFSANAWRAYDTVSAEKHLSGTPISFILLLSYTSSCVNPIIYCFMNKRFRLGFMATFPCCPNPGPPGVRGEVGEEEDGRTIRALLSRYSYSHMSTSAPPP
# Protocol: Washer Buffer (for use with Brandel Cell Harvester):
# 30 liters of 50 mM Tris, ph 7.7: Dissolve 181.7 g. Tris base in 4 1. deionized water at room temperature. Adjust pH to 7.7 with 6 N HCl and Q.S. to 30 1.
# 50 mM Tris-Cl, 5 mM MgCl2, 5 mM dithio-thretiol, 0.14 mg/ml bacitracin, and 2 mg/ml bovine serum albumin.
# 1 liter of 5X stock buffer:
# 30.28 g. Tris base per 800 ml D.I. water 5.09 g. MgCl2 6 H2 O, pH to 7.7 at room temperature with 6N HCl and Q.S. 1 liter, store at 4° C.
# 250 ml working buffer kept on ice:
# 50 ml of 5X stock buffer 0.1928 g. dithiothretiol (5 mM), 35 mg bacitracin (0.14 mg/ml), and 0.5 g. BSA (2mg/ml).
# Unlabeled L-364,718(nonpeptide ligand):
# Unlabeled L-364,718 (300 nM final concentration) is used to define nonspecific binding. A 3 mM solution is made in absolute ethanol and stored in a scintillation vial at -70° C. Aliquots are diluted 100-fold in the assay.
# A Sprague-Dawley rat is sacrificed by asphyxiation with carbon dioxide and the pancreas removed. The tissue is immersed in cold wash buffer and carefully trimmed of fat, connective tissue, blood vessels, blotted and weighed. The tissue is homogenized in a Sorvall SS-34 centrifuge tube in 50 volumes of wash buffer using a Polytron at setting 7 for 15 seconds. The tissue is centrifuged (Sorvall SS-34) at 19,000 rpm for 10 min. The supernatant is poured off and the pellet resuspended in sufficient buffer to obtain a contraction of 40 mg tissue wet weight/ml. Separate aliquots (2,3ml) are placed in each of 8 centrifuge tubes and centrifuged as before. The supernatants are poured off and the pellets stored at -70° C. Stored pellets are sufficient for the assay of 160 tubes and are stable for 1-2 months.
# During the assay the stored membranes are resuspended in 40 ml of assay buffer by scraping the pellet off the wall of the centrifuge tube and washing it into a teflon-glass homogenizer. Membranes are resuspended by 5 passes with the teflon pestle and the membranes stored on ice until ready for use.
# Preparation of Compounds:
# Compounds are prepared in DMSO (dimethyl sulfoxide) or in assay buffer. The majority of structures active as CCK antagonists generally require DMSO for complete solubility. Approximately 2-3 mg of compound is weighed directly into a 13×100 mm test tube and sufficient DMSO added to obtain a working stock solution at a concentration 100 fold greater than the highest concentration being tested in the assay. A total of 10 μl of each concentration of drug is added into a final volume of 1 ml to yield a 100 fold dilution of the, working stock solution. Control binding tubes ("totals and nonspecifics") are also treated with 10 μl DMSO.
# ^3 H-L-364,718 is obtained from New England Nuclear (Cat. #971) and is used as supplied. The final assay concentration of ^3 H-L-364,718 in assay buffer should be 0.2 nM in a final assay volume of 1 ml. ^3 H-L-364,718 (0.2 pmol) is added into the assay in a volume of 25 μl (8 nM working stock solution). The required dilution (usually>1000 fold) is obtained by dividing the working stock concentration into the concentration of the specific lot.
# Samples are prepared in triplicate and a "total" (buffer addition) and "nonspecific" (300 nM unlabeled L-364,718) set of tubes included in each set of 24 tubes. The remaining 6 sets of triplicates are used either for screening or IC50 determinations. The order of addition is drugs-DMSO, buffer, unlabeled L-364,718, ^3 H-L-364,718, and to start the assay, membranes.
# While tubes are incubating a shaking water bath at 37° C. for 30 min Brandel deposit/dispense filters are presoaked in wash buffer. Following the end of the incubation, sets of 24 tubes are rapidly washed with assay buffer as follows. Assay buffer is added to the incubation tubes to the height of the uppermost cross support in the standard Brandel test tube rack and the contents immediately aspirated. This process is repeated twice more, the filter removed, marked and the next set of 24 tubes processed. […]
# Gastrin receptor [1] = molecular target: T2, Gastrin receptor (Cavia porcellus, UniProt H0VZC5); experiment: Gastrin receptor binding assay (displacement of 125I-(Leu-15)-Gastrin from guinea pig fundic glands); design: species or system guinea pig (Hartley Strain); conditions: guinea pig fundic mucosa glands, 25° C., 30 min, read-out: In vitro Binding Data IC50 Gastrin
# T2 construct: The fundic mucosa is gently scraped off the submucosa; from tissue; host or cells: gastric glands from fundic mucosa of Hartley guinea pig
# T2 sequence (H0VZC5 1-426): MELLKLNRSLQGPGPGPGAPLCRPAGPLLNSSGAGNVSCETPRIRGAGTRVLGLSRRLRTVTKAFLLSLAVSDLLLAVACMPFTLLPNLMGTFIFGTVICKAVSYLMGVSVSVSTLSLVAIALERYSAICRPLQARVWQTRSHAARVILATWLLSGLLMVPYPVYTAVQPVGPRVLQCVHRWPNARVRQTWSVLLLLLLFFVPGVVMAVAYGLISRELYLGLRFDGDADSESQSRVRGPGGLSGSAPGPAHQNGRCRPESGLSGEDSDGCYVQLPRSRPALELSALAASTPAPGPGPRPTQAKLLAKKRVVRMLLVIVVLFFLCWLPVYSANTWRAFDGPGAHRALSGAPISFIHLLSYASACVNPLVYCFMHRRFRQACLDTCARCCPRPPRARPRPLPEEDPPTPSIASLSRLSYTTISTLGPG
# Protocol: (a) Phosphate Buffered Saline (PBS): 8.743 g NaCl, 523 mg K2 HPO4 and 76.8 mg NaH2 PO4 is dissolved in 1.0 liter of deionized water and the pH of the solution is adjusted to 7.3 with 5N NaOH.
# (b) Buffer A: While adding Basal Medium Eagle (BME) containing Earle's Salts, L-glutamine and 25 mM HEPES, 3 liters of deionized water is stirred, followed by the addition and dissolution of […] of sodium bicarbonate. The solution is then equilibrated with 95% O2 /5% CO2 gas followed by titration to a pH of 7.4 with NaOH.
# (c) Buffer B: 18.75 mg of collagenase and […] of BSA is dissolved in 25 ml of Buffer A.
# (d) Buffer C: 0.3 g of BSA is dissolved in 300 ml of Buffer A.
# (e) 6.25 mg Bacitracin is dissolved in 25 ml of Buffer A.
# (f) ^125 I-(Leu-15)-Gastrin: 100 microcurie dissolved in 2.0 ml of Buffer A to make 50 microcurie/ml.
# (g) ^125 I-(15-methionine)-Human Gastrin: 50 microcurie/ml.
# (h) (Leu 15)-Gastrin: 5.2 mg of (Leu-15)- Gastrin is dissolved in 10 ml of Buffer A. At the time of assay 1:10 dilution is made and 10 μl assay tube is used.
# A guinea pig (Hartley Strain) weighing 150-200 grams, is sacrificed by CO2 asphyxiation and the stomach immediately excised, cut along the greater curvature, cleaned out and immediately immersed in a beaker containing cold PBS, pH 7.3, to insure thorough cleaning. The fundic mucosa is gently scraped off the submucosa and added to a preweighed 50 ml plastic centrifuge tube containing 30 ml of cold Buffer A. The weight of the plastic centrifuge tube containing the buffer is then subtracted from the combined weight of the mucosa and the buffer-containing tube to give the weight of the mucosa. The weight of the mucosa thus determined is recorded for later calculations.
# The mucosa is then washed twice in Buffer A. After the final wash, the tissue is minced and is placed in a 100-ml glass beaker containing about 1.0 ml of Buffer A, and washed twice again by repeated centrifugation at 50×g for 5 minutes each and aspiration of supernatant. The washed tissue fragments are then added to a glass Erlenmeyer flask containing 25 ml of Buffer B and incubated in a Dubnoff shaking water bath at 37° C. for 30 minutes in a 95% O2 - 5% CO2 atmosphere. After the incubation, the digested tissue fragments in the Collegenase-buffer solution are triturated, filtered through a 200-micron nylon mesh and centrifuged at 50×g for 5 minutes. The supernatant is aspirated and discarded, the tissue washed 2× in Buffer C, resuspended in same buffer, incubated in a 37° C. water bath in an atmosphere of 95% O2 - 5% CO2 for 5 minutes, and centrifuged. The pelleted glands are suspended in Buffer D at a desired concentration of 2x10^5 glands/ml to use in the receptor binding assay.
# Six minisorp tubes (16×100 mm) are serially marked and divided into two groups thus: tubes #1, #2, and #3 are marked "T" for "Totals" and tubes #4, #5, and #6 are marked "NS" for "Non-Specifics." Into each of the six tubes are added 220 μl of prepared glands in Buffer D; 20 μl of Buffer A in tubes #1, #2, and #3; 10 μl, in tubes #4, #5 and #6; (10μ of (Leu-15)-Gastrin (25 μM) in tubes #4, #5, and #6. The six tubes are then transferred immediately to a 25° C. water bath and challenged each with 10 μl ^125 I-(Leu-15)-Gastrin diluted as per calculation. The tubes are then covered with a gas hood connected to a 95% O2 - 5% CO2 gas source and mechanically agitated in a shaker for 30 minutes.
# At the end of the incubation period, the assay mixtures are each filtered through a Whatman glass fiber filter B on a Brandel tissue harvester and washed twice with Buffer A. The filters are pre-soaked in Buffer C before use. The filter strips are removed after the final wash and individual filters counted in a Gamma Counter. The counts from the "Non-Specific" tubes are then averaged and subtracted from the average "Totals" to give the Specific Counts. […]
# [2] = test system: peripherial gastrin and CCK-B (brain) receptors; conditions: cited from earlier work
# [3] = test system: CCK-A (peripheral CCK) receptor; conditions: second generation proglumide analogues; cited from earlier work
# gastrin receptor [4] = conditions: cited from earlier work
# gastrin receptor [5] = conditions: cited from earlier work; remark: listed apart in the source
# gastrin = conditions: rat (in vivo); cited from earlier work
molecule,measurement,setting,value
"NC(=O)[C@H](CC(=O)OCc1ccccc1)NC(=O)[C@H]1Cc2c([nH]c3ccccc23)CN1C(=O)c1ccccc1 [Example 7, N-[(3R)-2-benzoyl-1,2,3,4-tetrahydro-9H-pyrido[3,4-b]indole-3-carboxyl]-L-aspartic acid amide β-benzyl ester]",IC50,CCK-A receptor,25 µM
"COc1ccc(NC(=O)N2Cc3[nH]c4ccccc4c3C[C@@H]2C(=O)Nc2ccccc2C(=O)N2CCCC2)cc1 [Example 21, pyrrolidine-2-N-[(3R)-2-(4-methoxyphenylcarbamoyl)-1,2,3,4-tetrahydro-9H-pyrido[3,4-b]indole-3-carboxyl]aminobenzamide]",IC50,Gastrin receptor [1],90 µM
NC(=O)[C@H](CC(=O)O)NC(=O)[C@@H]1CCCN1C(=O)[C@H]1Cc2c([nH]c3ccccc23)CN1C(=O)Nc1ccc(Cl)c(Cl)c1 [Example 25],IC50,Gastrin receptor [1],0.23 µM
CC(C)C[C@@H](NC(=O)[C@@H]1Cc2c([nH]c3ccccc23)CN1C(=O)Nc1ccc(Cl)c(Cl)c1)C(=O)N[C@H](CC(=O)O)C(N)=O [Example 71],IC50,Gastrin receptor [1],4 µM
"Cc1cccc(NC(=O)N[C@@H]2N=C(c3ccccc3)c3ccccc3N(C)C2=O)c1 [L-365,260]",selectivity for peripheral gastrin and CCK-B (brain) receptors,[2],selective for the peripherial gastrin and CCK-B (brain) receptors
CCCCCN(CCCCC)C(=O)C(CCC(=O)O)NC(=O)c1ccc(Cl)c(Cl)c1 (centres unmarked) [Lorglumide],receptor affinity and selectivity,[3],considerably better receptor affinity and selectivity
CCCCCN(CCCOC)C(=O)C(CCC(=O)O)NC(=O)c1ccc(Cl)c(Cl)c1 (centres unmarked) [Loxiglumide],receptor affinity and selectivity,[3],considerably better receptor affinity and selectivity
Boc-Trp-Leu-.PSI.(CH2 NH)-Asp-Phe-NH2,binding affinity,gastrin receptor [4]; compared with Boc-Trp-Leu-Asp-Phe-NH2,same binding affinity as Boc-Trp-Leu-Asp-Phe-NH2
same,agonist activity,gastrin receptor [5],no agonist activity
"Boc-Trp-Leu-gAsp-m(R,S)Phe-NH2",binding to the gastrin receptor,gastrin receptor [4]; analogues of CCK-4 with partial retroinverso modifications,bind strongly
same,block the effects of gastrin,gastrin,block the effects of gastrin
